Experimental findings from US20110105380A1, “Protection of Nano-Scale Particles from Immune Cell Uptake” (THE TRUSTEES OF THE UNIVERSITY OF PENNSYLVANIA, priority 2009, published 2011) are described below.

Experiment [1] deals with THP-1 macrophages. The experiment can be described thus: Phagocytosis of IgG-opsonized streptavidin beads with or without hCD47 by THP-1 macrophages. In kind it is cell-based, human. On the procedure:
The extracellular immunoglobulin-like domains of human CD47 (hCD47) was recombinantly expressed with a spacer domain (Brown et al., 1994, Protein Eng. 7:515-21; Brown et al., 1998, J. Exp. Med. 188:2083-90) plus a C-terminal biotinylation site. […] The beads were opsonized by pretreatment with anti-streptavidin to again induce FcR-mediated phagocytosis (for 45 minutes at 37° C.), and non-engulfed beads were detected with a flourescein anti-Fc against the IgG-opsonin. The number of adherent IgG-opsonized beads per phagocyte was independent of hCD47 (not shown).
For phagocytosis assays, macrophages were plated in 4 cm^2, or 2 cm^2 Lab-Tek II Chambered Coverglass (Nalge Nunc International, Naperville, Ill.) at 1.5×10^5/cm^2. Streptavidin polystyrene beads of different radius: 3.5 μm, 1.1 μm, 160 nm (Spherotech) and 100 nm (Ademtech) were added to macrophages at a ratio of 2:1, 20:1, 277:1, and 2206:1 respectively and incubate at 37° C. for 45 min. […] Non-phagocytosed beads were washed with PBS. Cells were fixed with 5% formaldehyde (Fisher Scientific) for 5 minutes, followed by immediate replacement with PBS. For differentiation of non-internalized beads, beads were labeled with a primary antibody, rabbit anti-streptavidin (Sigma) at 1:1000 in PBS for 20 min at 25° C. A second antibody, anti-rabbit R-PE (Sigma) was added at 1:1000 in PBS to the cells and incubated for an additional 20 minutes at 25° C. Cells were then washed with PBS/0.4% BSA and then quantified by light and fluorescent microscopy. At least 200 cells were scored per well and experiments were repeated at least three times.
For stimulated phagocytosis assays, beads with or without CD47 were incubated with rabbit anti-streptavidin as the IgG opsonin. Beads were opsonized at a concentration 1:1000 for 30 min at 25° C. Opsonized beads were washed 2× and resuspended in 50 μl of PBS/0.4% BSA. Phagocytes were washed with PBS and uningested beads were labeled as described above.
For cytoskeletal involvement at the phagocytic synapse, streptavidin beads opsonized with rabbit anti-streptavidin FITC. Opsonized beads of different sizes were added to THP-1 cells, PMA treated and immediately placed at 4° C. for 10 min to synchronize phagocytosis. […] For studies involving blebbistatin (EMD Biosciences), macrophages were treated for 10 min at 4° C. prior to temperature increase to 37° C. or for 45 min and 37° C. Macrophages treated with DMSO were used to verify no solvent effects.
Beads were opsonized at saturating densities of IgG, and over a 20-fold range of CD47 densities, the number of internalized beads per THP-1 was measured. […] The normal level of CD47 density found on human RBC (Subramanian et al., 2006, Blood 107(6):2548-2556) was indicated by the vertical bars and humans with certain Rhnull phenotypes with reduced levels of CD47 (Mouro-Chanteloup et al., 2003, Blood 101 (1):338-344; Arndt et al., 2004, Br. J. Haematol. 125(3):412-4) was indicated by the vertical bars. The minimum number of CD47 inhibition appears to be consistent across a 30-fold particle size range as depicted by the vertical bars.

Experiment [2] has as its system THP-1 macrophages. The experiment can be described thus: Phagocytosis of IgG-opsonized sheep RBCs by THP-1 macrophages. In kind it is cell-based, human. On the procedure: FIG. 5, comprising FIGS. 5A-5D, illustrates human macrophages and monocytes inhibited by human-CD47. FIG. 5A depicts DIC images of THP-1 phagocytes plus CD47-blocked, IgG-opsonized human-RBC, using F(ab′)2 made from monoclonal B6H12. The scale bars are […]. FIG. 5B depicts human peripheral blood monocyte plus CD47-blocked human-RBC following lysis after 45 min of phagocytosis: PKH26 labeled human RBC are depicted in the right hand panel: Lysed RBC labeled with FITC-anti-Fc indicates the cell is not internalized. Human-RBC and Sheep-RBC were phagocytosed by THP-1 cells in FIG. 5C, or human monocytes in FIG. 5D, depicting phagocytosis increases with opsonization. Inset depicts blebbistatin treatment of ShRBC showing decrease in phagocytosis. Phagocytosis is measured as the ratio of internalized RBCs per phagocyte with 200 phagocytes counted in triplicate experiments (±SEM).
FIG. 7 illustrates that myosin increases the efficiency of phagocytosis. Phagocytosis of IgG-opsonized sheep-RBC were measured as a ratio of internalized RBCs per phagocyte with 200 phagocytes counted in triplicate experiments (±SEM). The level of NMM IIA activity is normalized to WT levels in THP-1, with relative levels of knockdown or overexpression quantified by immunofluorescence and Western blot. Results for phagocytosis of the IgG-opsonized sheep-RBC were fit to a line; where the intercept approximates the result for human-RBC. The inset bar graph depicts blebbistatin inhibition of ShRBC phagocytosis by GFP-NMMIIA expressing WT THP-1.
Phagocytosis by the human-derived THP-1 macrophages of IgG-opsonized RBCs was studied by imaging in DIC microscopy. […] RBC membranes were prelabeled with PKH26, and non-engulfed RBCs were labeled with a fluorescein-labeled antibody against the Fc of the IgG-opsonin. […] A small number of human RBCs were engulfed for either type of phagocyte. […]
In light of the myosin differences seen by fluorescence at the various synapses (FIGS. 2-4), the effect of blebbistatin-inhibited myosin on phagocytosis was studied. […]

With `Cc1ccc2c(c1)C(=O)C1(O)CCN(c3ccccc3)C1=N2` (stereo not drawn) [blebbistatin], in experiment [1] (THP-1 treated with 50 μM blebbistatin vs DMSO), the “uptake of 100 nm IgG-opsonized particles” value is “decrease in uptake”. In addition, the “phagocytosis of CD47-null beads” value in experiment [1] (blebbistatin 50 μM, 10 min pretreatment of THP-1) was “inhibited phagocytosis of CD47-null beads to a level similar as hCD47 beads”. The “uptake of 1.1 μm IgG-opsonized particles” value in experiment [1] (blebbistatin treatment, FIG. 16D) is given as “comparable results”. Also, the “inhibition of ShRBC phagocytosis by GFP-NMM IIA expressing THP-1” value in experiment [2] (5 μM blebbistatin) is given as ~50%. The “engulfment of sheep RBCs by THP-1 macrophages” value in experiment [2] (blebbistatin treatment, FIG. 5C) is reported as “inhibited by blebbistatin to an extent similar to that of CD47 on human RBCs”. Further, in experiment [2] (engulfment of sheep RBCs by THP-1 macrophages, dose-response (not shown), read-out: Ki-blebb for blebbistatin inhibition of phagocytosis), the inhibition constant Ki (in general, a measure of affinity in units of concentration, obtained from inhibition or displacement) was 5 µM.
